From US20230321462A1, “Method for Improving Olfactory Sensitivity” (Kao Corporation, priority 2019, published 2023)

Legend:
OR10G4 = target: T1, OR10G4 (Homo sapiens, UniProt Q8NGN3); assay: Luciferase reporter gene assay, response of OR10G4 to odor substances; format: cell-based; conditions: OR10G4-expressing HEK293 cells, luciferase fold increase, FIG. 1
T1 construct: Flag-Rho tag (N); expressed in transfected cells; host or cells: HEK293
T1 sequence (Q8NGN3 1-311): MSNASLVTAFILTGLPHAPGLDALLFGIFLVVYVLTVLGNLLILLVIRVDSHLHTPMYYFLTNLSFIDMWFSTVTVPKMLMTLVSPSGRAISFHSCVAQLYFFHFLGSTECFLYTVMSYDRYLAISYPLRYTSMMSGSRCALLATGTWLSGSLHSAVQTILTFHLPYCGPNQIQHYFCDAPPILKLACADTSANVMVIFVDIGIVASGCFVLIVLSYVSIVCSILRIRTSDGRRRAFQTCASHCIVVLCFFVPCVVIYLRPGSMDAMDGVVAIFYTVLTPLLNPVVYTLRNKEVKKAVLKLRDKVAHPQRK
Description: Genes encoding the human olfactory receptors OR10G4, OR4S2, OR5P3, OR2W1, and OR1A1 (which are as set forth in SEQ ID NOs: 1, 2, 3, 4, and 5, respectively) were cloned. Each gene was cloned by PCR using human genomic DNA female (G1521: Promega) as a template, based on the sequence information registered in GenBank. Each gene amplified by PCR was incorporated into a pENTR vector (Invitrogen) in accordance with the manual, and by utilizing the NotI/AscI site present on the pENTR vector, it was recombined to the NotI/AscI site produced downstream of a Flag-Rho tag sequence on a pME18S vector. […]
(§1) An olfactory receptor expressed in HEK293 cells conjugated with Gαs existing in the cells to activate adenylate cyclase, so as to increase the amount of cAMP in the cells. For the receptor response measurement in the present study, a luciferase reporter gene assay was applied, and an increase in the intracellular amount of cAMP was monitored as a luminescence value derived from a firefly luciferase gene (fluc2P-CRE-hygro). […]
The medium was removed from the culture produced in the above 3), and an odor substance solution was then added thereto. […] The activity of luciferase was measured using Dual-Glo™ luciferase assay system (Promega) in accordance with the operating manual of the product. […]

OR4S2 = target: T2, OR4S2 (Homo sapiens, UniProt Q8NH73); assay: Luciferase reporter gene assay, response of OR4S2 to odor substances; format: cell-based; conditions: OR4S2-expressing HEK293 cells, luciferase fold increase, FIG. 4, 5, 9
T2 construct: Flag-Rho tag (N); expressed in transfected cells; host or cells: HEK293
T2 sequence (Q8NH73 1-311): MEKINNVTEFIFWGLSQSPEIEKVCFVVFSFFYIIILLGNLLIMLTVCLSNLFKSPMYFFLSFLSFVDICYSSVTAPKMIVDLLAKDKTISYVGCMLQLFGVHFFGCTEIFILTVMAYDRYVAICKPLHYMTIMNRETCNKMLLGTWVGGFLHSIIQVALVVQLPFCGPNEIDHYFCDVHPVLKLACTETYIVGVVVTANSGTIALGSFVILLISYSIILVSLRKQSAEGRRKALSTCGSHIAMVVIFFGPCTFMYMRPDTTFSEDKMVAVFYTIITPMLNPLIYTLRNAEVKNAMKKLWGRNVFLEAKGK
Description: Genes encoding the human olfactory receptors OR10G4, OR4S2, OR5P3, OR2W1, and OR1A1 (which are as set forth in SEQ ID NOs: 1, 2, 3, 4, and 5, respectively) were cloned. Each gene was cloned by PCR using human genomic DNA female (G1521: Promega) as a template, based on the sequence information registered in GenBank. Each gene amplified by PCR was incorporated into a pENTR vector (Invitrogen) in accordance with the manual, and by utilizing the NotI/AscI site present on the pENTR vector, it was recombined to the NotI/AscI site produced downstream of a Flag-Rho tag sequence on a pME18S vector.
HEK293 cells in which any one of the above-described human olfactory receptors was allowed to express, were produced. A reaction solution having the composition shown in Table 2 was prepared, and was then left to stand in a clean bench for 15 minutes. The resultant was added into each well of a 96-well plate (BD). […]
as §1
The medium was removed from the culture produced in the above 3), and an odor substance solution was then added thereto. […] The activity of luciferase was measured using Dual-Glo™ luciferase assay system (Promega) in accordance with the operating manual of the product. The value fLuc/hRluc was calculated by dividing the value of luminescence derived from firefly luciferase by the value of luminescence derived from Renilla luciferase. A fold increase was calculated by dividing the value fLuc/hRluc induced by cells stimulated with an odor substance, by the value fLuc/hRluc induced by cells not stimulated with an odor substance, and the obtained value was used as an indicator of response intensity. […]

olfactory sensitivity = assay: Sensory test: detection threshold concentration of odor substances before and after oral care; format: in vivo, human; conditions: for olfactory sensitivity (detection threshold concentration): 1 hour after oral care vs before oral care
Method: Olfactory sensitivity before and after oral care was evaluated according to a sensory test. The experimental scheme is shown in FIG. 6A, and is also described in detail below. The sensory test was carried out with 14 subjects. On the test day, the subjects were prohibited to eat and drink anything after getting up, and were also prohibited to do oral care including brushing of teeth. The test was started between 8:00 am to 9:30 am. First, exhaled breath was collected from the subjects. Subsequently, the detection threshold concentration of each odor substance was measured according to the sensory test. Thereafter, the subjects ate designated breakfast, and then performed oral care (the brushing of teeth using commercially available toothbrush and dentifrice for 5 minutes, and then, the washing of the mouth using commercially available mouth wash for 30 seconds). At individual time points of 10 minutes and 1 hour after the oral care, exhaled breath was collected from the subjects and the detection threshold concentration of each odor substance was measured.
1 mL of an odor substance solution placed in a vial bottle (Maruemu, No. 2) was used as an odor sample. As such odor substance solutions, a 20-step 2-fold dilution series was prepared regarding each of muscone, indole, and furfuryl mercaptan (highest concentrations: 1000 ppm, 1 mM, and 10 ppb, respectively). Mineral oil (Sigma-Aldrich) was used as a solvent in all cases. As a blank, a vial containing 1 mL of mineral oil was used.
A single test was carried out on two types of odor substance among muscone, indole, and furfuryl mercaptan. […] The test participants smelled the odors contained in the vials and tried to choose the vial containing an odor solution. The test was started with an odor sample having the third low concentration. When the subject’s selection was incorrect or the subject could not choose the vial even once, the same trial was carried out using an odor sample having one step higher concentration. When the subject’ selection was correct two times in a row, the same trial was carried out using an odor sample having one step lower concentration. When the subject’ selection was correct two times in a row using an odor sample with a new concentration, the subject was tested using an odor sample having further one step lower concentration. When the subject could not choose the correct vial even once, the subject was tested using an odor sample having one step higher concentration. Switching from a high concentration to a low concentration, and from a low concentration to a high concentration, was recorded 7 times in total, and the mean value of the concentrations measured 4 times in the second half was defined as a detection threshold concentration. The detection threshold concentrations of each odor substance before and after oral care were compared with each other according to the Wilcoxon signed-rank test, and the p value was calculated. The statistical analysis was carried out using R Software (Ver.3.6.0).

OR5AN1 = target: T3, OR5AN1 (Homo sapiens, UniProt Q8NGI8); conditions: Patent Literature 1; cited from earlier work
T3 sequence (Q8NGI8 1-311): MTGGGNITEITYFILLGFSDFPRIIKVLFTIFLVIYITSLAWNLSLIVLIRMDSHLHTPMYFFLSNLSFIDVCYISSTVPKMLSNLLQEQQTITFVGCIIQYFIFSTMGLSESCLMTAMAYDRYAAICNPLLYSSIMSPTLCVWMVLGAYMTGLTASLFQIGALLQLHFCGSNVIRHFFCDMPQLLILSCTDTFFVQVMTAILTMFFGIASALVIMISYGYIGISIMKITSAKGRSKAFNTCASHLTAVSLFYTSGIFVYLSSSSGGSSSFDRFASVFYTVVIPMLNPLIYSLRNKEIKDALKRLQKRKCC

[1] = system: olfactory sensitivity to 3M3SH; assay: Sensory test: odor sensory intensity to 3M3SH with 3M3SH applied to armpit portions of clothes; format: in vivo, human; conditions: fifteen minutes after application of 3M3SH onto the armpit portions, two subjects, FIG. 3
Method: 3M3SH was used as an underarm odor-causing substance. A sensory evaluation sample was prepared by adding one cotton ball (Hakujuji Co., Ltd., No. 10) into a 13.5-mL vial bottle (Maruemu No. 5), and then adding 10 µL of a 3M3SH solution with each diluted concentration thereto. For the 3M3SH solution, mineral oil (Sigma-Aldrich) was used as a solvent, and the concentrations of the solution were set to be 0 µM, 1 µM, 3 µM, 10 µM, 30 µM, 100 µM, and 300 µM.
The sensory test was carried out with two subjects. The subjects wore a commercially available white cloth (material: 65% polyester and 35% cotton). The subjects first smelled the above-described samples in the order from a low concentration sample to a high concentration sample, and odor sensory intensity which the subjects felt was then evaluated. The evaluation was carried out in 9 stages from “0: Not felt” to “4: Unbearably strongly felt,” at intervals of 0.5. Thereafter, the 3M3SH ethanol solution (3 µg/mL) was added in an amount of 10 µL each onto both of the armpit portions of each subject’ clothes (white clothes). Fifteen minutes after addition of this solution, the above-described sensory evaluation was carried out again. […]

## CCOc1cc(C=O)ccc1O [ethyl vanillin, Ethyl vanillin]
OR10G4
  response of OR10G4 to odor substances: activate OR10G4

## C[C@@H]1CCCCCCCCCCCCC(=O)C1 [muscone, Muscone]
OR4S2
  response of OR4S2 to odor substances: is not activated by
Olfactory sensitivity; FIG. 7A
  olfactory sensitivity (detection threshold concentration): no statistically significant difference
OR5AN1
  recognition by OR5AN1: recognized, mainly mediated by OR5AN1

## c1ccc2[nH]ccc2c1 [indole, Indole]
OR4S2
  response of OR4S2 to odor substances: activate OR4S2
Olfactory sensitivity; 10 minutes after the oral care, FIG. 7B
  detection threshold concentration relative to before oral care: 1/16
Olfactory sensitivity; FIG. 7A
  olfactory sensitivity (detection threshold concentration): statistically significantly improved
Olfactory sensitivity; 1 hour after the oral care, on average, FIG. 7A
  detection threshold concentration relative to before oral care: ⅛

## COc1ccccc1O [guaiacol, Guaiacol]
OR10G4
  response of OR10G4 to odor substances: activate OR10G4

## CCCC(C)(S)CCO (stereo not drawn) [3M3SH, 3-Methyl-3-sulfanylhexan-1-ol]
[1]
  odor intensity of 3M3SH felt from the sample: reduced

## SCc1ccco1 [furfuryl mercaptan, Furfuryl mercaptan]
OR4S2
  response of OR4S2 to odor substances: is activated by
Olfactory sensitivity; FIG. 7A
  olfactory sensitivity (detection threshold concentration): statistically significantly improved
